Data reported in ChEMBL document CHEMBL1157533 (J Med Chem, 2008).
pEC50: −log10 of the molar value.

Legend:
[1] = Bioavailability in dog; assay type: ADME, organism-based, Canis lupus familiaris; conditions: in vivo
[2] = Total clearance in rat at 1.0 mg/kg, iv; assay type: ADME, organism-based; set-up: dose 1 mg/kg, route intravenous; conditions: in vivo
[3] = Terminal half life in monkey plasma at 0.27 mg/kg, iv by cassette assay; assay type: ADME, organism-based, Macaca mulatta; set-up: dose 0.27 mg/kg, route intravenous; conditions: rhesus monkey, read-out: beta t1/2 (converted)
[4] = Bioavailability in dog at 0.32 mg/kg, po; assay type: ADME, organism-based, Canis lupus familiaris; conditions: in vivo
[5] = AUC (0 to 24 hrs) in monkey at 0.27 mg/kg, po by cassette assay; assay type: ADME, organism-based, Macaca mulatta; set-up: time < 24 hr, dose 0.27 mg/kg, route oral; conditions: rhesus monkey, plasma
[6] = Total clearance in dog at 0.32 mg/kg, iv; assay type: ADME, organism-based, Canis lupus familiaris; set-up: dose 0.32 mg/kg, route intravenous; conditions: in vivo
[7] = Protein binding in Beagle dog serum; assay type: ADME, cell-free, Canis lupus familiaris; conditions: read-out: PPB (converted)
[8] = Total clearance in monkey at 0.27 mg/kg, iv by cassette assay; assay type: ADME, organism-based, Macaca mulatta; set-up: dose 0.27 mg/kg, route intravenous; conditions: rhesus monkey, in vivo
[9] = target: Beta-3 adrenergic receptor (Homo sapiens, UniProt P13945); experiment: Agonist activity at human recombinant beta3 adrenergic receptor expressed in CHO cells assessed as cAMP accumulation by enzyme immuno assay; assay type: functional, cell-based
Beta-3 adrenergic receptor (Homo sapiens, UniProt P13945), sequence (P13945 whole entry): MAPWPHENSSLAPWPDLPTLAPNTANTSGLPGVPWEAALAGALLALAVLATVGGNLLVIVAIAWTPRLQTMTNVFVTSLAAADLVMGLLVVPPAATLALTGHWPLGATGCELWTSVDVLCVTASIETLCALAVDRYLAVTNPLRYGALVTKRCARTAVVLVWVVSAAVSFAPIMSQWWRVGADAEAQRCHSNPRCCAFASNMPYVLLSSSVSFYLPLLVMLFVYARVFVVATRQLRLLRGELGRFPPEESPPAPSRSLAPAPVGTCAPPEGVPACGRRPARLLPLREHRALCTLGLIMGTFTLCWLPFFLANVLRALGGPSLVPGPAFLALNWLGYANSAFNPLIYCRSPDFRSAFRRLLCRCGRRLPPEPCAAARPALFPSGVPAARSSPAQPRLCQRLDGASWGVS

[10] = Bioavailability in monkey at 0.27 mg/kg, po by cassette assay; assay type: ADME, organism-based, Macaca mulatta; conditions: rhesus monkey, in vivo
[11] = Cmax in rat at 1.0 mg/kg, po; assay type: ADME, organism-based; set-up: dose 1 mg/kg, route oral; conditions: in vivo
[12] = Bioavailability in rat at 1.0 mg/kg, po; assay type: ADME, organism-based; conditions: in vivo
[13] = target: Beta-3 adrenergic receptor (Canis lupus familiaris, UniProt O02662); experiment: Agonist activity at dog recombinant beta3 adrenergic receptor expressed in CHO cells assessed as cAMP accumulation by enzyme immuno assay; assay type: functional, cell-based
Beta-3 adrenergic receptor (Canis lupus familiaris, UniProt O02662), sequence (O02662 whole entry): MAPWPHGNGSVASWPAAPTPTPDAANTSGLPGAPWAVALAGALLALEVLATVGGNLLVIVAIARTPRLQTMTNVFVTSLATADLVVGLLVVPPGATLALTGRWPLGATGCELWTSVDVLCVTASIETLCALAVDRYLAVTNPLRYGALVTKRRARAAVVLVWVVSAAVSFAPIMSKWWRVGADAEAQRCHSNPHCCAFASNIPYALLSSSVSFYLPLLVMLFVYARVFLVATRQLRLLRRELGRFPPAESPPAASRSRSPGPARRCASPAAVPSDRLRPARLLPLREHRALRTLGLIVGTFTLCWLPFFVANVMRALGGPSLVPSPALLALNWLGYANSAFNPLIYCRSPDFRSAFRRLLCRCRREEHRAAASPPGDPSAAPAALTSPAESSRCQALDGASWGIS

[14] = target: Beta-1 adrenergic receptor (Homo sapiens, UniProt P08588); experiment: Agonist activity at human recombinant beta-1 adrenergic receptor expressed in CHO cells assessed as cAMP accumulation by enzyme immuno assay; assay type: functional, cell-based
Beta-1 adrenergic receptor, sequence (P08588 whole entry): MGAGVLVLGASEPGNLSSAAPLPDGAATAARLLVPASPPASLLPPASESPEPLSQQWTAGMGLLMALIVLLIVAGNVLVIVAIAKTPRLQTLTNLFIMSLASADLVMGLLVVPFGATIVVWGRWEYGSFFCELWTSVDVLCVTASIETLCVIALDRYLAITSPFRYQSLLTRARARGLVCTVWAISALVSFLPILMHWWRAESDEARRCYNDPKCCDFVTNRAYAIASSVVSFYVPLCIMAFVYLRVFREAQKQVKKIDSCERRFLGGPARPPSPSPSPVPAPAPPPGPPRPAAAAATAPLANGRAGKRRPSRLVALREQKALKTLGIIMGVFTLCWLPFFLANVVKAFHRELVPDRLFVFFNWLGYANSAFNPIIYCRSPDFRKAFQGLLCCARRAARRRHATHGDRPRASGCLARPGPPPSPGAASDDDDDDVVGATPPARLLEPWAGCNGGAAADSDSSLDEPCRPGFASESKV

[15] = Cmax in monkey at 0.27 mg/kg, po by cassette assay; assay type: ADME, organism-based, Macaca mulatta; set-up: dose 0.27 mg/kg, route oral; conditions: rhesus monkey, in vivo
[16] = Terminal half life in dog plasma at 0.32 mg/kg, iv; assay type: ADME, organism-based, Canis lupus familiaris; set-up: dose 0.32 mg/kg, route intravenous; conditions: read-out: beta t1/2 (converted)
[17] = target: Beta-2 adrenergic receptor (Homo sapiens, UniProt P07550); experiment: Agonist activity at human recombinant beta2 adrenergic receptor expressed in CHO cells assessed as cAMP accumulation by enzyme immuno assay; assay type: functional, cell-based
Beta-2 adrenergic receptor, sequence (P07550 whole entry): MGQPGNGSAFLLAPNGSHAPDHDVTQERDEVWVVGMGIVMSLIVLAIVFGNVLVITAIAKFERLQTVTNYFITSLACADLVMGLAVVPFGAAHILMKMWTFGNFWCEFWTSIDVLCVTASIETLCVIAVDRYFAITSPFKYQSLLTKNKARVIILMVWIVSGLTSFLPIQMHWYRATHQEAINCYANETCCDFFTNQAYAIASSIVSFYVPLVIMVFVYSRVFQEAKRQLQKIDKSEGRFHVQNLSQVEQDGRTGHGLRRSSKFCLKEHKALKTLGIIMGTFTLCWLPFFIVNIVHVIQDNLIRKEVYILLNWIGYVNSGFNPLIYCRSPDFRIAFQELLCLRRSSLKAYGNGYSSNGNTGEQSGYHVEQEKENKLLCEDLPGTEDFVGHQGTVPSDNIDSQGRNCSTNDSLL

[18] = AUC (0 to 24 hrs) in dog at 0.32 mg/kg, po; assay type: ADME, organism-based, Canis lupus familiaris; set-up: time < 24 hr, dose 0.32 mg/kg, route oral; conditions: plasma
Canis familiaris = organism: Canis familiaris; experiment: cells; conditions: Canis lupus familiaris, 3 h
Description: Inhibition of carbachol-induced increase in intravesical pressure in intraduodenally dosed Beagle dog OAB model for 180 mins

[19] = AUC (0 to 24 hrs) in rat at 1.0 mg/kg, po; assay type: ADME, organism-based; set-up: time < 24 hr, dose 1 mg/kg, route oral; conditions: plasma
[20] = Terminal half life in rat plasma at 1.0 mg/kg, iv; assay type: ADME, organism-based; set-up: dose 1 mg/kg, route intravenous; conditions: read-out: beta t1/2 (converted)
[21] = Cmax in dog at 0.32 mg/kg, po; assay type: ADME, organism-based, Canis lupus familiaris; set-up: dose 0.32 mg/kg, route oral; conditions: in vivo
[22] = Total clearance in dog at 0.1 mg/kg, iv; assay type: ADME, organism-based, Canis lupus familiaris; set-up: dose 0.1 mg/kg, route intravenous; conditions: in vivo
[23] = Cmax in monkey at 0.30 mg/kg, po by cassette assay; assay type: ADME, organism-based, Macaca mulatta; set-up: dose 0.3 mg/kg, route oral; conditions: rhesus monkey, in vivo, 0.3 mg/kg
[24] = Cmax in dog at 0.1 mg/kg, po; assay type: ADME, organism-based, Canis lupus familiaris; set-up: dose 0.1 mg/kg, route oral; conditions: in vivo
[25] = AUC (0 to 24 hrs) in dog at 0.1 mg/kg, po; assay type: ADME, organism-based, Canis lupus familiaris; set-up: time < 24 hr, dose 0.1 mg/kg, route oral; conditions: plasma
[26] = AUC (0 to 24 hrs) in monkey at 0.30 mg/kg, po by cassette assay; assay type: ADME, organism-based, Macaca mulatta; set-up: time < 24 hr, dose 0.3 mg/kg, route oral; conditions: rhesus monkey, plasma, 0.3 mg/kg
[27] = Total clearance in monkey at 0.30 mg/kg, iv by cassette assay; assay type: ADME, organism-based, Macaca mulatta; set-up: dose 0.3 mg/kg, route intravenous; conditions: rhesus monkey, in vivo, 0.3 mg/kg
[28] = Bioavailability in monkey at 0.30 mg/kg, po by cassette assay; assay type: ADME, organism-based, Macaca mulatta; conditions: rhesus monkey, in vivo, 0.3 mg/kg
[29] = Bioavailability in dog at 0.1 mg/kg, po; assay type: ADME, organism-based, Canis lupus familiaris; conditions: in vivo
[30] = Bioavailability in monkey at 0.32 mg/kg, po by cassette assay; assay type: ADME, organism-based, Macaca mulatta; conditions: rhesus monkey, in vivo
[31] = Total clearance in rat at 0.34 mg/kg, iv by cassette assay; assay type: ADME, organism-based; set-up: dose 0.34 mg/kg, route intravenous; conditions: in vivo
[32] = Cmax in rat at 0.34 mg/kg, po by cassette assay; assay type: ADME, organism-based; set-up: dose 0.34 mg/kg, route oral; conditions: in vivo
[33] = AUC (0 to 24 hrs) in rat at 0.34 mg/kg, po by cassette assay; assay type: ADME, organism-based; set-up: time < 24 hr, dose 0.34 mg/kg, route oral; conditions: plasma
[34] = AUC (0 to 24 hrs) in monkey at 0.32 mg/kg, po by cassette assay; assay type: ADME, organism-based, Macaca mulatta; set-up: time < 24 hr, dose 0.32 mg/kg, route oral; conditions: rhesus monkey, plasma
[35] = Terminal half life in dog at 0.1 mg/kg, iv; assay type: ADME, organism-based, Canis lupus familiaris; set-up: dose 0.1 mg/kg, route intravenous; conditions: in vivo, read-out: beta t1/2 (converted)
Rattus norvegicus [36] = experiment: Bioavailability in rat at 0.34 mg/kg, po by cassette assay; assay type: ADME, organism-based; conditions: in vivo
Rattus norvegicus [37] = experiment: Terminal half life in rat at 0.34 mg/kg, iv by cassette assay; assay type: ADME, organism-based; set-up: dose 0.34 mg/kg, route intravenous; conditions: in vivo
[38] = Total clearance in monkey at 0.32 mg/kg, iv by cassette assay; assay type: ADME, organism-based, Macaca mulatta; set-up: dose 0.32 mg/kg, route intravenous; conditions: rhesus monkey, in vivo
[39] = Terminal half life in monkey plasma at 0.32 mg/kg, iv by cassette assay; assay type: ADME, organism-based, Macaca mulatta; set-up: dose 0.32 mg/kg, route intravenous; conditions: rhesus monkey, read-out: beta t1/2 (converted)
[40] = Cmax in monkey at 0.32 mg/kg, po by cassette assay; assay type: ADME, organism-based, Macaca mulatta; set-up: dose 0.32 mg/kg, route oral; conditions: rhesus monkey, in vivo
[41] = Metabolic stability assessed as intrinsic clearance in rat liver microsome in presence of NADPH-generating system; assay type: ADME; conditions: liver microsomes
[42] = Metabolic stability assessed as intrinsic clearance in monkey liver microsome in presence of NADPH-generating system; assay type: ADME, Macaca mulatta; conditions: rhesus monkey, liver microsomes
[43] = Metabolic stability assessed as intrinsic clearance in dog liver microsome in presence of NADPH-generating system; assay type: ADME, Canis lupus familiaris; conditions: liver microsomes
[44] = Metabolic stability assessed as intrinsic clearance in human liver microsome in presence of NADPH-generating system; assay type: ADME; conditions: liver microsomes

Compound	clearance [2]	bioavailability [4]	clearance [6]	fraction unbound [7]	pEC50 [9]	Cmax [11]	bioavailability [12]	pEC50 [13]	pEC50 [14]	half-life [16]	pEC50 [17]	AUC(0-t) at 24 h [18]	pEC50 (Canis familiaris)	ED50 (Canis familiaris)	AUC(0-t) at 24 h [19]	half-life [20]	Cmax [21]	clearance [22]	Cmax [24]	AUC(0-t) at 24 h [25]	further results
O=C(O)c1ccc(-c2ccc(CCNC[C@H](O)c3cccc(Cl)c3)cc2)cc1OC1CCCCC1	–	–	–	–	–	–	–	–	–	–	–	–	–	–	–	–	–	–	–	–	bioavailability [1]: 0%
CC(C)Oc1cc(-c2ccc(CCNC[C@H](O)c3cccnc3)cc2)ccc1C(=O)O	16 mL/min/kg	63.2%	6.4 mL/min/kg	0.23	8.82	172 ng/mL	61.5%	7.96	< 6.00	9.9 h	< 5.00	461 ng·h/mL	8.11	0.0284 mg/kg	548 ng·h/mL	3.5 h	27 ng/mL	–	–	–	half-life [3]: 2.2 h; AUC(0-t) at 24 h [5]: 77.5 ng·h/mL; clearance [8]: 22.8 mL/min/kg; bioavailability [10]: 25.7%; Cmax [15]: 11 ng/mL
CCCOc1cc(-c2ccc(C[C@@H](C)NC[C@H](O)c3cccnc3)cc2)ccc1C(=O)O	–	–	–	0.18	10.19	–	–	9.29	6.72	–	< 6.00	–	9.55	0.0048 mg/kg	–	–	–	24.3 mL/min/kg	3 ng/mL	35.5 ng·h/mL	Cmax [23]: 8.2 ng/mL; AUC(0-t) at 24 h [26]: 65.2 ng·h/mL; clearance [27]: 47 mL/min/kg; bioavailability [28]: 57.2%; bioavailability [29]: 54.9%
CC(C)Oc1cc(-c2ccc(CCN[C@@H](C)[C@H](O)c3ccccc3)cc2)ccc1C(=O)O	–	–	–	0.14	9.09	–	–	8.43	6.11	–	< 5.00	–	8.02	0.02 mg/kg	–	–	–	7.3 mL/min/kg	7.4 ng/mL	134 ng·h/mL	bioavailability [30]: 88.2%; clearance [31]: 6.8 mL/min/kg; Cmax [32]: 125 ng/mL; AUC(0-t) at 24 h [33]: 880 ng·h/mL; AUC(0-t) at 24 h [34]: 1800 ng·h/mL; half-life [35]: 14.3 h; bioavailability (Rattus norvegicus [36]): 100%; beta t1/2 (Rattus norvegicus [37]): 8.2 h; clearance [38]: 2.5 mL/min/kg; half-life [39]: 29 h; Cmax [40]: 178 ng/mL; bioavailability [29]: 63.9%
CC(C)Cc1cc(-c2ccc(CCNC[C@H](O)c3ccc(N)nc3)cc2)ccc1C(=O)O	8.5 mL/min/kg	27%	7.9 mL/min/kg	0.2	10.18	21.9 ng/mL	12.4%	8.49	6.82	7.6 h	5.49	177 ng·h/mL	8.74	0.0161 mg/kg	208 ng·h/mL	1.9 h	49.1 ng/mL	–	–	–	bioavailability [30]: 48.6%; CLint scaled [41]: < 2 mL/min/kg; CLint scaled [42]: 3.8 mL/min/kg; AUC(0-t) at 24 h [34]: 90.8 ng·h/mL; CLint scaled [43]: < 2 mL/min/kg; clearance [38]: 24.3 mL/min/kg; half-life [39]: 5.9 h; CLint scaled [44]: 2.2 mL/min/kg
